Test system: SMN2 full length and Δ7 mRNA
Assay: Endogenous SMN2 mRNA end-point semi-quantitative RT-PCR splicing assay in cultured cells (GM03813)
Type: cell-based, human
Conditions: Type 1 SMA patient fibroblasts GM03813, increasing concentrations, 24 hr, agarose gel (FIG. 5)
Method: The endpoint reverse transcription-PCR splicing assay is used to visualize and quantify the levels of the SMN2 full length and Δ7 mRNA in primary cells and cell lines containing the SMN2 gene treated with a test compound.
GM03813 SMA patient cells (5,000 cells/well) are seeded in 200 μL of cell culture medium (DMEM plus 10% FBS) in 96-well flat-bottom plates and the plate is immediately swirled to ensure proper dispersal of cells, forming an even monolayer of cells. Cells are allowed to attach for at least 4-6 hrs. Test compounds are serially diluted 3.16-fold in 100% DMSO to generate a 7-point concentration curve. A solution of test compound (1 μL, 200× in DMSO) is added to each test well and 1 μL DMSO is added to each control well. The plate is incubated for 24 hrs in a cell culture incubator (37° C., 5% CO2, 100% relative humidity). The cells are then lysed in Cells-To-Ct lysis buffer and the lysate is stored at 80° C.
SMN FL and Δ7 mRNA are identified using the following primers in Table 6. These primers hybridize to a nucleotide sequence in exon 6 (SMN Forward C, SEQ ID NO. 11) (nucleotide 43 to nucleotide 63) and exon 8 (SMN Reverse C, SEQ ID NO. 12) (nucleotide 51 to nucleotide 73) common to human SMN1 and SMN2 mRNA. Since the SMA patient cells used in Example 4 contain only the SMN2 gene, RT-PCR can visualize and quantify only SMN2 full-length and SMN2 Δ7 mRNA.
To synthesize cDNA, 5 μL of lysate, 4 μL of 5× iScript reaction mix, 1 μL of reverse transcriptase, and 10 μL of water are combined and incubated 5 min at 25° C. followed by 30 min at 42° C., followed by 5 min at 85° C. The cDNA solution is stored at −20° C.
To perform endpoint PCR, 5 μL of cDNA, 0.2 μL of 100 μM forward primer, 0.2 μL of 100 μM reverse primer, and 22.5 μL of polymerase super mix are combined in a 96 well semiskirted PCR plate. PCR is carried out at the following temperatures for the indicated time: Step 1: 94° C. (2 min), Step 2: 94° C. (30 sec), Step 3: 55° C. (30 sec), Step 4: 68° C. (1 min), then repeat Steps 2 to 4 for a total of 33 cycles, then hold at 4° C.
10 μL of each PCR sample is electrophoretically separated on a 2% agarose E-gel for 14 minutes stained with double-stranded DNA (dsDNA) staining reagents (e.g., ethidium bromide) and visualized using a gel imager.

| SMILES | SMN2 FL mRNA (gel band) | SMN2 Δ7 mRNA (gel band) |
| --- | --- | --- |
| CN1CCN(c2ccc3cc(-c4nc5c(Cl)cccc5s4)c(=O)oc3n2)CC1 [Cpd 5, 3-(4-chloro-1,3-benzothiazol-2-yl)-7-(4-methylpiperazin-1-yl)-2H-pyrano[2,3-b]pyridin-2-one] | progressively more SMN2 FL mRNA | less SMN2 Δ7 mRNA |
| Cc1ccc2nc(-c3cc4ccc(N5CCN(C)CC5)nc4oc3=O)cn2c1 [Cpd 27, 3-(6-methylimidazo[1,2-a]pyridin-2-yl)-7-(4-methylpiperazin-1-yl)-2H-pyrano[2,3-b]pyridin-2-one] | progressively more SMN2 FL mRNA | less SMN2 Δ7 mRNA |

— patent US9371336B2, “Compounds for treating spinal muscular atrophy” (PTC Therapeutics Inc., priority 2012, dated 2016)
